Reference: ChEMBL document CHEMBL3046521, “Synthesis and antitumor activity of (4-hydroxyphenyl)[5-substituted alkyl/aryl)-2-thioxo-1,3,4-thiadiazol-3-yl]methanone and [(3,4-disubstituted)-1,3-thiazol-2ylidene]-4-hydroxybenzohydrazide” (2011)

Legend:
Type in all cases: functional
[1] = test system: MCF7; test: Cytotoxicity against Homo sapiens (human) MCF7 cells after 48 hr by sulforhodamine B assay; conditions: MCF7, 48 h; for TGI: read-out: pTGI (converted)
[2] = test system: SF-539; test: Cytotoxicity against Homo sapiens (human) SF539 cells after 48 hr by sulforhodamine B assay; conditions: SF-539, 48 h; for TGI: read-out: pTGI (converted)
[3] = test system: CCRF-CEM; test: Cytotoxicity against Homo sapiens (human) CCRF-CEM cells after 48 hr by sulforhodamine B assay; conditions: for TGI: read-out: pTGI
[4] = test system: PC-3; test: Cytotoxicity against Homo sapiens (human) PC3 cells after 48 hr by sulforhodamine B assay; conditions: PC-3, 48 h; for TGI: read-out: pTGI (converted)
[5] = test system: K562; test: Cytotoxicity against Homo sapiens (human) K562 cells after 48 hr by sulforhodamine B assay; conditions: K562, 48 h; for TGI: read-out: pTGI (converted)
[6] = test system: SF-295; test: Cytotoxicity against Homo sapiens (human) SF295 cells after 48 hr by sulforhodamine B assay; conditions: SF-295, 48 h; for TGI: read-out: pTGI (converted)
[7] = test system: MOLT-4; test: Cytotoxicity against Homo sapiens (human) MOLT4 cells after 48 hr by sulforhodamine B assay; conditions: MOLT-4, 48 h; for TGI: read-out: pTGI (converted)
[8] = test system: 786-0; test: Cytotoxicity against Homo sapiens (human) 786-0 cells after 48 hr by sulforhodamine B assay; conditions: 786-0, 48 h; for TGI: read-out: pTGI (converted)
[9] = test system: U-251; test: Cytotoxicity against Homo sapiens (human) U251 cells after 48 hr by sulforhodamine B assay; conditions: U-251, 48 h; for TGI: read-out: pTGI (converted)
[10] = test system: OVCAR-5; test: Cytotoxicity against Homo sapiens (human) OVCAR5 cells after 48 hr by sulforhodamine B assay; conditions: OVCAR-5, 48 h; for TGI: read-out: pTGI (converted)
[11] = test system: Hs-578T; test: Cytotoxicity against Homo sapiens (human) Hs 578T cells after 48 hr by sulforhodamine B assay; conditions: for TGI: read-out: pTGI (converted)
[12] = test system: NCI-H23; test: Cytotoxicity against Homo sapiens (human) NCI-H23 cells after 48 hr by sulforhodamine B assay; conditions: NCI-H23, 48 h; for TGI: read-out: pTGI (converted)
[13] = test system: HOP-92; test: Cytotoxicity against Homo sapiens (human) HOP92 cells after 48 hr by sulforhodamine B assay; conditions: HOP-92, 48 h; for TGI: read-out: pTGI (converted)
[14] = test system: T47D; test: Cytotoxicity against Homo sapiens (human) T47D cells after 48 hr by sulforhodamine B assay; conditions: for TGI: read-out: pTGI (converted)
[15] = test system: ACHN; test: Cytotoxicity against Homo sapiens (human) ACHN cells after 48 hr by sulforhodamine B assay; conditions: for TGI: read-out: pTGI (converted)
[16] = test system: RXF 393; test: Cytotoxicity against Homo sapiens (human) RXF393 cells after 48 hr by sulforhodamine B assay; conditions: RXF 393, 48 h; for TGI: read-out: pTGI (converted)
[17] = test system: HCC 2998; test: Anticancer activity in Homo sapiens (human) HCC2998 cells assessed as cell growth at 10^-5 M after 48 hr by SRB assay; conditions: HCC 2998, 48 h, read-out: Activity
[18] = test system: IGROV-1; test: Cytotoxicity against Homo sapiens (human) IGROV1 cells after 48 hr by sulforhodamine B assay; conditions: IGROV-1, 48 h; for TGI: read-out: pTGI (converted)
[19] = test system: A549; test: Cytotoxicity against Homo sapiens (human) A549 cells after 48 hr by sulforhodamine B assay; conditions: A549, 48 h; for TGI: read-out: pTGI (converted)
[20] = test system: SF-268; test: Cytotoxicity against Homo sapiens (human) SF268 cells after 48 hr by sulforhodamine B assay; conditions: SF-268, 48 h; for TGI: read-out: pTGI (converted)
[21] = test system: HL-60(TB); test: Cytotoxicity against Homo sapiens (human) HL-60(TB) cells after 48 hr by sulforhodamine B assay; conditions: HL-60, 48 h; for CC50: read-out: pLC50 (the source's name) (converted); for TGI: read-out: pTGI (converted)
[22] = test system: SK-MEL-2; test: Cytotoxicity against Homo sapiens (human) SK-MEL-2 cells after 48 hr by sulforhodamine B assay; conditions: SK-MEL-2, 48 h; for TGI: read-out: pTGI (converted)
[23] = test system: A498; test: Cytotoxicity against Homo sapiens (human) A498 cells after 48 hr by sulforhodamine B assay; conditions: A498, 48 h
[24] = test system: UO-31; test: Cytotoxicity against Homo sapiens (human) UO31 cells after 48 hr by sulforhodamine B assay; conditions: UO-31, 48 h; for TGI: read-out: pTGI
[25] = test system: UACC-257; test: Cytotoxicity against Homo sapiens (human) UACC257 cells after 48 hr by sulforhodamine B assay; conditions: UACC-257, 48 h; for TGI: read-out: pTGI (converted)
[26] = test system: CAKI-1; test: Cytotoxicity against Homo sapiens (human) Caki1 cells after 48 hr by sulforhodamine B assay; conditions: CAKI-1, 48 h; for TGI: read-out: pTGI (converted)
[27] = test system: SNB-75; test: Cytotoxicity against Homo sapiens (human) SNB75 cells after 48 hr by sulforhodamine B assay; conditions: SNB-75, 48 h; for TGI: read-out: pTGI (converted)
[28] = test system: NCI-H322M; test: Cytotoxicity against Homo sapiens (human) NCI-H322M cells after 48 hr by sulforhodamine B assay; conditions: for TGI: read-out: pTGI (converted)
[29] = test system: SNB-19; test: Cytotoxicity against Homo sapiens (human) SNB19 cells after 48 hr by sulforhodamine B assay; conditions: SNB-19, 48 h; for TGI: read-out: pTGI (converted)
[30] = test system: NCI-H522; test: Cytotoxicity against Homo sapiens (human) NCI-H522 cells after 48 hr by sulforhodamine B assay; conditions: NCI-H522, 48 h; for TGI: read-out: pTGI (converted)

SMILES: O=C(c1ccc(O)cc1)n1nc(-c2c(Cl)cccc2Cl)sc1=S
- GI50 [1]: 11.5 µM
- LC50 [1]: 87.1 µM
- TGI [1]: 32.4 µM
- GI50 [2]: 14.8 µM
- LC50 [2]: 58.9 µM
- TGI [2]: 29.5 µM
- GI50 [3]: 9.55 µM
- LC50 [3]: > 100 µM
- TGI [3]: > 100 µM
- GI50 [4]: 3.31 µM
- LC50 [4]: > 100 µM
- TGI [4]: 30.2 µM
- GI50 [5]: 3.39 µM
- LC50 [5]: > 100 µM
- TGI [5]: 28.8 µM
- GI50 [6]: 5.13 µM
- LC50 [6]: > 100 µM
- TGI [6]: 29.5 µM
- GI50 [7]: 4.47 µM
- LC50 [7]: > 100 µM
- TGI [7]: 27.5 µM
- GI50 [8]: 2.34 µM
- LC50 [8]: 53.7 µM
- TGI [8]: 17 µM
- GI50 [9]: 11.5 µM
- LC50 [9]: 91.2 µM
- TGI [9]: 32.4 µM
- GI50 [10]: 19.5 µM
- LC50 [10]: > 100 µM
- TGI [10]: 61.7 µM
- GI50 [11]: 29.5 µM
- LC50 [11]: > 100 µM
- TGI [11]: 89.1 µM
- GI50 [12]: 12.6 µM
- LC50 [12]: > 100 µM
- TGI [12]: 53.7 µM
- GI50 [13]: 0.324 µM
- LC50 [13]: 43.7 µM
- TGI [13]: 7.76 µM
- GI50 [14]: 3.89 µM
- LC50 [14]: > 100 µM
- TGI [14]: 32.4 µM
- GI50 [15]: 7.76 µM
- LC50 [15]: > 100 µM
- TGI [15]: 41.7 µM
- GI50 [16]: 17.4 µM
- LC50 [16]: > 100 µM
- TGI [16]: 51.3 µM
- growth at 10 µM [17]: 17.1%
- GI50 [18]: 12.9 µM
- LC50 [18]: > 100 µM
- TGI [18]: 89.1 µM
- GI50 [19]: 12.3 µM
- LC50 [19]: > 100 µM
- TGI [19]: 58.9 µM
- GI50 [20]: 7.59 µM
- LC50 [20]: > 100 µM
- TGI [20]: 34.7 µM
- GI50 [21]: 2 µM
- CC50 [21]: > 100 µM
- TGI [21]: 30.9 µM
- GI50 [22]: 14.5 µM
- LC50 [22]: 95.5 µM
- TGI [22]: 37.2 µM
- GI50 [23]: 2.34 µM
- CC50 ([23]; read-out: pLC50 (the source's name) (converted)): 53.7 µM
- TGI ([23]; read-out: pTGI (converted)): 17 µM
- GI50 [24]: 9.33 µM
- LC50 [24]: > 100 µM
- TGI [24]: > 100 µM
- GI50 [25]: 14.1 µM
- LC50 [25]: > 100 µM
- TGI [25]: 41.7 µM
- GI50 [26]: 6.03 µM
- LC50 [26]: > 100 µM
- TGI [26]: 57.5 µM
- GI50 [27]: 16.6 µM
- LC50 [27]: > 100 µM
- TGI [27]: 50.1 µM
- GI50 [28]: 15.1 µM
- LC50 [28]: > 100 µM
- TGI [28]: 66.1 µM
- GI50 [29]: 15.1 µM
- LC50 [29]: > 100 µM
- TGI [29]: 67.6 µM
- GI50 [30]: 11.7 µM
- LC50 [30]: > 100 µM
- TGI [30]: 41.7 µM

SMILES: Cc1ccc(-c2cs/c(=N\NC(=O)c3ccc(O)cc3)n2-c2c(C)cccc2C)cc1
- GI50 [1]: 23.4 µM
- LC50 [1]: > 100 µM
- TGI [1]: 95.5 µM
- GI50 [2]: 21.9 µM
- LC50 [2]: > 100 µM
- TGI [2]: > 100 µM
- GI50 [3]: 33.1 µM
- LC50 [3]: > 100 µM
- TGI [3]: > 100 µM
- GI50 [4]: 11 µM
- LC50 [4]: > 100 µM
- TGI [4]: 91.2 µM
- GI50 [5]: 11.5 µM
- LC50 [5]: > 100 µM
- TGI [5]: 79.4 µM
- GI50 [6]: 20.9 µM
- LC50 [6]: > 100 µM
- TGI [6]: 79.4 µM
- GI50 [7]: 13.5 µM
- LC50 [7]: > 100 µM
- TGI [7]: 57.5 µM
- GI50 [8]: 22.4 µM
- LC50 [8]: > 100 µM
- TGI [8]: > 100 µM
- GI50 [9]: 25.1 µM
- LC50 [9]: > 100 µM
- TGI [9]: > 100 µM
- GI50 [10]: 28.2 µM
- LC50 [10]: > 100 µM
- TGI [10]: > 100 µM
- GI50 [11]: 23.4 µM
- LC50 [11]: > 100 µM
- TGI [11]: 91.2 µM
- GI50 [12]: 25.7 µM
- LC50 [12]: > 100 µM
- TGI [12]: > 100 µM
- GI50 [13]: 1.32 µM
- LC50 [13]: > 100 µM
- TGI [13]: 26.3 µM
- GI50 [14]: 12.9 µM
- LC50 [14]: > 100 µM
- TGI [14]: 63.1 µM
- GI50 [15]: 20.9 µM
- LC50 [15]: > 100 µM
- TGI [15]: > 100 µM
- GI50 [16]: 38 µM
- LC50 [16]: > 100 µM
- TGI [16]: > 100 µM
- GI50 [18]: 20 µM
- LC50 [18]: > 100 µM
- TGI [18]: > 100 µM
- GI50 [19]: 23.4 µM
- LC50 [19]: > 100 µM
- TGI [19]: > 100 µM
- GI50 [20]: 23.4 µM
- LC50 [20]: > 100 µM
- TGI [20]: > 100 µM
- GI50 [21]: 11.5 µM
- CC50 [21]: > 100 µM
- TGI [21]: 64.6 µM
- GI50 [22]: 30.2 µM
- LC50 [22]: > 100 µM
- TGI [22]: 95.5 µM
- GI50 [24]: 9.55 µM
- LC50 [24]: > 100 µM
- TGI [24]: > 100 µM
- GI50 [25]: 42.7 µM
- LC50 [25]: > 100 µM
- TGI [25]: > 100 µM
- GI50 [26]: 10.5 µM
- LC50 [26]: > 100 µM
- TGI [26]: > 100 µM
- GI50 [27]: 24.5 µM
- LC50 [27]: > 100 µM
- TGI [27]: > 100 µM
- GI50 [28]: 35.5 µM
- LC50 [28]: > 100 µM
- TGI [28]: > 100 µM
- GI50 [29]: 20.9 µM
- LC50 [29]: > 100 µM
- TGI [29]: > 100 µM
- GI50 [30]: 20.9 µM
- LC50 [30]: > 100 µM
- TGI [30]: > 100 µM
